Measured values published in paper PMC7230232, “Secondary Metabolites from the Culture of the Marine-derived Fungus Paradendryphiella salina PC 362H and Evaluation of the Anticancer Activity of Its Metabolite Hyalodendrin” (Marine Drugs, 2020).
Where “and” joins values, the source holds several entries; their conditions need not be identical. Equal entries are not always repeated. Where two headings read alike, the source gives them in different places.

Assays:
RKO = test: MTT cell viability assay, RKO; format: cell-based; details: Homo sapiens, colon
Method: (§1) Cellular viability was determined by the MTT (methylthiazolyldiphenyl-tetrazolium bromide) assay. Briefly, cells were exposed to the indicated concentrations of crude extracts or compounds 1–4 for five doubling times and then incubated for 3 h at 37 °C with MTT. Formazan crystals were then dissolved in DMSO and optical density measured at 570 nm in a microplate reader. The half-maximal inhibitory concentration (IC50) was determined. Values given for crude extracts are averages of at least two experiments done in duplicate. IC50 values calculated for the four isolated compounds and the commercially available 4-hydroxy-tamoxifen (Sigma-Aldrich) are averages of at least three experiments done in duplicate.

LS174T = test: MTT cell viability assay, LS174T; format: cell-based; details: Homo sapiens, colon
Method: as §1

SW480 = test: MTT cell viability assay, SW480; format: cell-based; details: Homo sapiens, colon
Method: as §1

C19 = test: MTT cell viability assay, C19 immortalized fibroblasts; format: cell-based; details: Homo sapiens, Fibroblast; normal; fibroblastic
Method: as §1

HCT116 = test: MTT cell viability assay, HCT116; format: cell-based; details: Homo sapiens, HCT-116; colon
Method: as §1

HCT116 SN-38 = test: MTT cell viability assay, HCT116 SN-38; format: cell-based; details: Homo sapiens, HCT-116; colon; SN-38 resistant
Method: as §1

HT29 = test: MTT cell viability assay, HT29; format: cell-based; details: Homo sapiens, HT-29; colon
Method: as §1

MCF7-Sh-WISP2 cells [1] = test: γ-H2AX foci immunofluorescence; format: cell-based, human; details: 1 µM
DLD1 = test: MTT cell viability assay, DLD1; format: cell-based; details: Homo sapiens, DLD-1; colon
Method: as §1

[2] = biological target: T1, NADPH-dependent thioredoxin reductase (Trr1) (Saccharomyces cerevisiae, UniProt P29509); test: In vitro reduction by NADPH thioredoxin reductase alone (NADPH consumption); format: biochemical; details: yeast NTR (Trr1) alone, versus ACN control
T1 construct: made in house
Method: Thioredoxin 1 (Trx1) and NADPH-dependent thioredoxin reductase (Trr1) from Saccharomyces cerevisiae were cloned and produced as described previously. Thioredoxin activity was measured spectrophotometrically (Uvikon XS; Secomam) in 1 mL cuvette by following NADPH consumption at 340 nm over 2 min. The reaction was performed in 100 µM NADPH, 246 nM of Trr1 in 30 mM Tris-HCl buffer (pH 7.9) and in the presence or not of 65 nM of Trx1. The reaction was initiated by adding 10 µL of 50 mM of 3 in acetonitrile or 10 µL of acetonitrile (ACN, Control experiment). For each condition, NADPH consumption experiments were performed in triplicate and results were represented as the mean ± SD. The significance of the results was evaluated by Student’s t-test.

MDA-MB-231 = test: MTT cell viability assay, MDA-MB-231; format: cell-based; details: Homo sapiens, breast, mesenchymal, invasive
Method: as §1

HT29 SN-38 = test: MTT cell viability assay, HT29 SN-38; format: cell-based; details: Homo sapiens, HT-29; colon; SN-38 resistant
Method: as §1

MCF7-Sh-WISP2 cells [3] = test: Cell cycle progression by propidium iodide flow cytometry; format: cell-based, human; details: 380 nM
Method: Figure S5. Cell cycle progression of MCF7-Sh-WISP2 cells in response to compound 3 exposure.
After treatment with 380 nM of 3 (hyalodendrin) (corresponding to 1.9 10-5 nmol of drug per cell), cells were collected, counted and fixed with 70 % ethanol. Cells were then stained with 40 μg/mL propidium iodide (PI) (Biolegend) containing RNaseA (100 µg/mL), prior analysis on a Gallios flow cytometer (Beckman Coulter, Inc, Villepinte, France). The results were analyzed using the Venturi One V6 software (Applied Cytometry).
(1 picture or pasted object on this page, not shown here)

HCT116 5FU = test: MTT cell viability assay, HCT116 5FU; format: cell-based; details: Homo sapiens, HCT-116; colon; 5-fluorouracil resistant
Method: as §1

SW48 = test: MTT cell viability assay, SW48; format: cell-based; details: Homo sapiens, colon
Method: as §1

HCT116 oxa = test: MTT cell viability assay, HCT116 oxa; format: cell-based; details: Homo sapiens, HCT-116; colon; oxaliplatin resistant
Method: as §1

HT29 oxa = test: MTT cell viability assay, HT29 oxa; format: cell-based; details: Homo sapiens, HT-29; colon; oxaliplatin resistant
Method: as §1

3T3-F442A cells = test: MTT cell viability assay, 3T3-F442A pre-adipocytes; format: cell-based, murine; details: Mus musculus
Method: as §1

LOVO = test: MTT cell viability assay, LOVO; format: cell-based; details: Homo sapiens, colon
Method: as §1

LS513 = test: MTT cell viability assay, LS513; format: cell-based; details: Homo sapiens, LS-513; colon
Method: as §1

[4] = biological target: cytoplasmic GAPDH from Arabidopsis thaliana (AtGAPDH) (Arabidopsis thaliana, UniProt P25858); test: Covalent adduct formation with GAPDH by MALDI-TOF mass spectrometry; format: binding; details: data not shown
Text: Compound 3 is a member of the epidithiodioxopiperazines, a class of natural products characterized by a sulfur-bridged dioxopiperazine that is believed to play an important role in their biological activity. […] The role of the sulfur-bridged dioxopiperazine in the activity of epidithiodioxopiperazines has been attributed to two main mechanisms: (1) mixed disulfide formation with proteins and (2) production of reactive oxygen species (ROS) upon the formation of the disulfide bond after reduction by a cellular reductant. […] To test whether 3 might act through these two processes, we first assessed its propensity to form in vitro covalent adducts with the glycolytic glyceraldehyde-3-phosphate dehydrogenase enzyme (GAPDH). GAPDH is a widely used model protein to study molecular mechanism of thiol-based post-translational modifications as its catalytic cysteine is prone to multiple reversible and irreversible oxidation states. […] Trxs are small ubiquitous thiol/disulfide oxidoreductases with multiple recognized roles in cellular processes and human diseases including cancers. However, since mammal NTR is a selenoprotein that is not easily produced recombinantly, we used here the thioredoxin system from the eukaryotic yeast Saccharomyces cerevisiae (Figure 6). […]

T1 sequence (P29509 whole entry): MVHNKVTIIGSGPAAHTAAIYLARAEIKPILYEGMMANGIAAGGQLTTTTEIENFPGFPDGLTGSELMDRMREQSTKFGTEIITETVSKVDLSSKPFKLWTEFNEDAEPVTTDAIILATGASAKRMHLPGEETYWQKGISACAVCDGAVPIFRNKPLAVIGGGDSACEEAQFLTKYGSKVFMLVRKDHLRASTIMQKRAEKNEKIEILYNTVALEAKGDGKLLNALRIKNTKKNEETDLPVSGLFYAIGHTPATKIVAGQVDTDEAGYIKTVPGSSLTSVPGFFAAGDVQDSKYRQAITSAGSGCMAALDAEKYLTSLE
Sequence of cytoplasmic GAPDH from Arabidopsis thaliana (AtGAPDH) (P25858 whole entry): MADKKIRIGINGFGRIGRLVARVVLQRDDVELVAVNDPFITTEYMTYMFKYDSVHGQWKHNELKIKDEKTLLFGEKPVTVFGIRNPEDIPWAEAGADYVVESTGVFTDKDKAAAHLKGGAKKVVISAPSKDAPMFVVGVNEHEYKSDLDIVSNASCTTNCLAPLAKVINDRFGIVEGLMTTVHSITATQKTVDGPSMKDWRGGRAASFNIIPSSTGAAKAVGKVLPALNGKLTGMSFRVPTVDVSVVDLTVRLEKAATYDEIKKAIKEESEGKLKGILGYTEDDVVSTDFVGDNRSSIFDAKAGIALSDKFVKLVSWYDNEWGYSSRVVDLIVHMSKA

In the case of `CN1C(=O)[C@@]2(Cc3ccccc3)SS[C@]1(CO)C(=O)N2C` [Compound 3, (3R, 6R) Hyalodendrin], the IC50 (RKO) is reported as 74.3 ± 1.9 nM, the IC50 (LS174T) is reported as 158 ± 13 nM and the IC50 (SW480) is reported as 164 ± 11 nM. The IC50 (C19) was 252 ± 20.5 nM, the IC50 (HCT116) was 48 ± 9.3 nM and the IC50 (HCT116 SN-38) was 43.8 ± 4.2 nM. For the same compound, the IC50 (HT29) was 58 ± 13.7 nM, the γ-H2AX signal (MCF7-Sh-WISP2 cells [1]; 24 and 48 h) was “punctuated labeling in their nucleus” and the γ-H2AX signal (MCF7-Sh-WISP2 cells [1]; 3 h) was “no γ-H2AX signal could be detected”. The IC50 (DLD1) was 40 ± 5.8 nM, the NADPH consumption increase [2] was “ca. three” and the IC50 (MDA-MB-231) was 132 ± 13.4 nM. For the same compound, the IC50 (HT29 SN-38) was 93.8 ± 13.6 nM, the cell cycle progression (MCF7-Sh-WISP2 cells [3]) was “no significant changes” and the IC50 (HCT116 5FU) was 72 ± 10.9 nM. It also gave an IC50 (SW48) of 149 ± 15.5 nM, an IC50 (HCT116 oxa) of 25.7 ± 4.2 nM and an IC50 (HT29 oxa) of 142 ± 2.6 nM. For the same compound, the IC50 (3T3-F442A cells; read-out: IC50 3T3-F442A) was 0.099 µg/mL and 300 nM, the IC50 (3T3-F442A cells; read-out: IC50 3T3F442A) was 305 ± 4.2 nM and the IC50 (LOVO) was 73.4 ± 16.4 nM. For the same compound, the IC50 (LS513) was 78 ± 9.3 nM and the “mixed disulfide formation with catalytic cysteine of AtGAPDH (mass shift)” value [4] was “not able to form a mixed disulfide”.
